Data: article PMC2697262 (Biochemistry, 2009)

Key:
[1] = target: orotidine 5’-monophosphate decarboxylase (MtOMPDC) (Methanothermobacter thermautotrophicus, UniProt O26232, D70G)
[2] = target: orotidine 5’-monophosphate decarboxylase (MtOMPDC) (Methanothermobacter thermautotrophicus, UniProt O26232); assay: X-ray crystal structure, […] Å; assay type: biochemical
Chain of orotidine 5’-monophosphate decarboxylase (MtOMPDC) (Methanothermobacter thermautotrophicus, UniProt O26232) (O26232 whole entry): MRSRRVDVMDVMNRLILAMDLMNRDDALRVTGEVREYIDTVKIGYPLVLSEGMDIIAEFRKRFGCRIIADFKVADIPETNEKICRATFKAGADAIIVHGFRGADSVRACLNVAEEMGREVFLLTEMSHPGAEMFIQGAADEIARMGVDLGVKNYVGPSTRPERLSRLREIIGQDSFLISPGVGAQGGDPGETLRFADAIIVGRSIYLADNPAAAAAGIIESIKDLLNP

Chain of orotidine 5’-monophosphate decarboxylase (MtOMPDC) (Methanothermobacter thermautotrophicus, UniProt O26232, D70G) (O26232 whole entry D70G): as the sequence (O26232 whole entry) above, with D70G counted along it

`O=c1[nH]c(=O)n([C@@H]2O[C@H](COP(=O)(O)O)[C@@H](O)[C@H]2O)cc1F` [FUMP] was tested. Which “X-ray crystal structure, 1.3 Å; also H6 exchange by NMR” value [1] did it give?
The value was “structures were obtained for D70G in the absence of ligands and complexed with UMP and FUMP”.

With `O=C1CC(C(=O)O)N([C@@H]2O[C@H](COP(=O)(O)O)[C@@H](O)[C@H]2O)C(=O)N1` (stereo partly drawn) [(6R)-H2OMP] as the compound, how does the Ki [2] read?
The Ki was 100 µM.
